Experimental data as given in patent US20240067632A1, “WEE1 Degrading Compounds and Uses Thereof” (Bristol-Myers Squibb Company, priority 2022, published 2024).

How the values were obtained:
WEE1 = target: T1, WEE1 (Homo sapiens, UniProt P30291+Q96SW2); experiment: WEE1-ePL degradation assay (LentiX-WEE1-ePL-GSPT1-ND cells, InCELL Hunter luminescence, 4 h); type: cell-based; conditions: 293T-LentiX WEE1-ePL cells; for 293T-LentiX WEE1-ePL Degradation 4 hr (Ymin): lower limit of the fit (0 = luciferase inhibitor, Ymax = DMSO control); for DC50: read-out: 293T-LentiX WEE1-ePL Degradation 4 hr (EC50)
T1 construct: C-terminal ePL-tagged (DiscoverX, Fremont, CA) full-length WEE1 expression construct; expressed in transfected cells; host or cells: LentiX-HEK293T (Invitrogen), lentiviral transduction; co-expressing GSPT1-GN (G576N, lacking the first 158 amino acids)
Outline: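 Luminescent readout (InCELL Hunter, 30 min RT) of WEE1-ePL levels in transduced HEK293T cells after 4 h compound exposure at 37 °C. Dosing: 10 points, 3-fold steps, top 1 uM or 10 uM. EC50 from four-parameter logistic fit; Ymax set by DMSO.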

MKN45 cells = experiment: MKN45 cell proliferation assay (Cell-Titer-Glo, 120 h); type: cell-based; conditions: for EC50: Homo sapiens, MKN-45, 120 h, Cell-Titer-Glo, growth inhibition, read-out: MKN45 Cell Prolif. 120 hr (EC50); for MKN45 Cell Prolif. 120 hr (Ymin-Obs): minimal percent of DMSO control observed in the concentrations tested
Outline: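 Cells seeded at 400/well onto pre-printed 10-point half-log dilutions (top 1 or 10 uM, 0.1% DMSO final), in triplicate, and grown 120 h at 37 C. Viability by Cell-Titer-Glo luminescence, blank-subtracted and normalised to DMSO; EC50 from four-parameter logistic fit, with observed minimal % of control recorded as Ymin-obs.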

293T-LentiX WEE1-ePL Degradation 4 hr (Ymin) (WEE1) | DC50 (WEE1) [nM] | EC50 (MKN45 cells) [nM] | Compound | MKN45 Cell Prolif. 120 hr (Ymin-Obs) (MKN45 cells)
30.67 | 11.5 | 9.05 | CO[C@H]1CC[C@H](Oc2ccc3cc(CN4CC[C@H](Oc5ccc6c(c5)CN(C5CCC(=O)NC5=O)C6=O)C4)ccc3n2)CC1 (stereo partly drawn) [3-(1-oxo-5-{[(3S)-1-[(2-{[(1r,4r)-4-methoxycyclohexyl]oxy}quinolin-6-yl)methyl]pyrrolidin-3-yl]oxy}-2,3-dihydro-1H-isoindol-2-yl)piperidine-2,6-dione] | 8.57
26 | 3.41 | 0.882 | CO[C@H]1CC[C@@](C)(Nc2ccc3cc(CN4CC[C@H](Oc5ccc6c(c5)CN(C5CCC(=O)NC5=O)C6=O)C4)ccc3n2)CC1 (stereo partly drawn) [3-(1-oxo-5-{[(3S)-1-[(2-{[(1s,4s)-4-methoxy-1-methylcyclohexyl]amino}quinolin-6-yl)methyl]pyrrolidin-3-yl]oxy}-2,3-dihydro-1H-isoindol-2-yl)piperidine-2,6-dione] | 8.44
29.5 | 6.38 | 1.04 | CO[C@H]1CC[C@@H](Nc2ccc3cc(CN4CC[C@H](Oc5ccc6c(c5)CN(C5CCC(=O)NC5=O)C6=O)C4)ccc3n2)CC1 (stereo partly drawn) [3-(1-oxo-5-{[(3S)-1-[(2-{[(1s,4s)-4-methoxycyclohexyl]amino}quinolin-6-yl)methyl]pyrrolidin-3-yl]oxy}-2,3-dihydro-1H-isoindol-2-yl)piperidine-2,6-dione] | 6.285
31.33 | 4.62 | 5.35 | CO[C@H]1CC[C@@H](Oc2ccc3cc(CN4CC[C@H](Oc5ccc6c(c5)CN(C5CCC(=O)NC5=O)C6=O)C4)ccc3n2)CC1 (stereo partly drawn) [3-(1-oxo-5-{[(3S)-1-[(2-{[(1s,4s)-4-methoxycyclohexyl]oxy}quinolin-6-yl)methyl]pyrrolidin-3-yl]oxy}-2,3-dihydro-1H-isoindol-2-yl)piperidine-2,6-dione] | 8.79
30 | 4.51 | 2.62 | O=C1CCC(N2Cc3cc(O[C@H]4CCN(Cc5ccc6nc(CO[C@@H]7CCOC7)ccc6c5)C4)ccc3C2=O)C(=O)N1 (stereo partly drawn) [3-(1-oxo-5-{[(3S)-1-[(2-{[(3R)-oxolan-3-yloxy]methyl}quinolin-6-yl)methyl]pyrrolidin-3-yl]oxy}-2,3-dihydro-1H-isoindol-2-yl)piperidine-2,6-dione] | 6.56
33 | 7.04 | 3.12 | O=C1CCC(N2Cc3cc(O[C@H]4CCN(Cc5ccc6nc(CO[C@H]7CCOC7)ccc6c5)C4)ccc3C2=O)C(=O)N1 (stereo partly drawn) [3-(1-oxo-5-{[(3S)-1-[(2-{[(3S)-oxolan-3-yloxy]methyl}quinolin-6-yl)methyl]pyrrolidin-3-yl]oxy}-2,3-dihydro-1H-isoindol-2-yl)piperidine-2,6-dione] | 7.75
70 | 558 | > 10000 | O=C1CCC(N2Cc3cc(O[C@H]4CCN(Cc5ccc6c(c5)NC(=O)CO6)C4)ccc3C2=O)C(=O)N1 (stereo partly drawn) [3-(1-oxo-5-{[(3S)-1-[(3-oxo-3,4-dihydro-2H-1,4-benzoxazin-6-yl)methyl]pyrrolidin-3-yl]oxy}-2,3-dihydro-1H-isoindol-2-yl)piperidine-2,6-dione] | 88.425
34.5 | 5.3 | 16.7 | O=C1CCC(N2Cc3cc(O[C@H]4CCN(Cc5cc(-c6ccccc6)ccn5)C4)ccc3C2=O)C(=O)N1 (stereo partly drawn) [3-(1-oxo-5-{[(3S)-1-[(4-phenylpyridin-2-yl)methyl]pyrrolidin-3-yl]oxy}-2,3-dihydro-1H-isoindol-2-yl)piperidine-2,6-dione] | 8.59
46 | 7.59 | 131 | O=C1CCC(N2Cc3cc(O[C@H]4CCN(Cc5ccc(-c6ccccc6)cn5)C4)ccc3C2=O)C(=O)N1 (stereo partly drawn) [3-(1-oxo-5-{[(3S)-1-[(5-phenylpyridin-2-yl)methyl]pyrrolidin-3-yl]oxy}-2,3-dihydro-1H-isoindol-2-yl)piperidine-2,6-dione] | 31.28
33 | 2.17 | 8.4 | O=C1CCC(N2Cc3cc(O[C@H]4CCN(Cc5cncc(-c6ccccc6)c5)C4)ccc3C2=O)C(=O)N1 (stereo partly drawn) [3-(1-oxo-5-{[(3S)-1-[(5-phenylpyridin-3-yl)methyl]pyrrolidin-3-yl]oxy}-2,3-dihydro-1H-isoindol-2-yl)piperidine-2,6-dione] | 7.52
38 | 148 | 883 | O=C1CCC(N2Cc3cc(O[C@H]4CCN(Cc5ccc6cnncc6c5)C4)ccc3C2=O)C(=O)N1 (stereo partly drawn) [3-(1-oxo-5-{[(3S)-1-[(phthalazin-6-yl)methyl]pyrrolidin-3-yl]oxy}-2,3-dihydro-1H-isoindol-2-yl)piperidine-2,6-dione] | 16.7
48.23 | 51.9 | 4770 | O=C1CCC(N2Cc3cc(O[C@H]4CCN(Cc5ncc6ccccc6n5)C4)ccc3C2=O)C(=O)N1 (stereo partly drawn) [3-(1-oxo-5-{[(3S)-1-[(quinazolin-2-yl)methyl]pyrrolidin-3-yl]oxy}-2,3-dihydro-1H-isoindol-2-yl)piperidine-2,6-dione] | 74.28
36.57 | 57 | 284 | O=C1CCC(N2Cc3cc(O[C@H]4CCN(Cc5ccc6ncncc6c5)C4)ccc3C2=O)C(=O)N1 (stereo partly drawn) [3-(1-oxo-5-{[(3S)-1-[(quinazolin-6-yl)methyl]pyrrolidin-3-yl]oxy}-2,3-dihydro-1H-isoindol-2-yl)piperidine-2,6-dione] | 20.44
58 | 25.6 | > 10000 | O=C1CCC(N2Cc3cc(O[C@H]4CCN(Cc5ccc6ccccc6n5)C4)ccc3C2=O)C(=O)N1 (stereo partly drawn) [3-(1-oxo-5-{[(3S)-1-[(quinolin-2-yl)methyl]pyrrolidin-3-yl]oxy}-2,3-dihydro-1H-isoindol-2-yl)piperidine-2,6-dione] | 81.45
33.025 | 23.4 | 56.8 | O=C1CCC(N2Cc3cc(O[C@H]4CCN(Cc5ccnc6ccccc56)C4)ccc3C2=O)C(=O)N1 (stereo partly drawn) [3-(1-oxo-5-{[(3S)-1-[(quinolin-4-yl)methyl]pyrrolidin-3-yl]oxy}-2,3-dihydro-1H-isoindol-2-yl)piperidine-2,6-dione] | 13.21
32.69 | 14.6 | 104 | O=C1CCC(N2Cc3cc(O[C@H]4CCN(Cc5cccc6ncccc56)C4)ccc3C2=O)C(=O)N1 (stereo partly drawn) [3-(1-oxo-5-{[(3S)-1-[(quinolin-5-yl)methyl]pyrrolidin-3-yl]oxy}-2,3-dihydro-1H-isoindol-2-yl)piperidine-2,6-dione] | 19
28.66 | 3.45 | 30.4 | O=C1CCC(N2Cc3cc(O[C@H]4CCN(Cc5ccc6ncccc6c5)C4)ccc3C2=O)C(=O)N1 (stereo partly drawn) [3-(1-oxo-5-{[(3S)-1-[(quinolin-6-yl)methyl]pyrrolidin-3-yl]oxy}-2,3-dihydro-1H-isoindol-2-yl)piperidine-2,6-dione] | 14.87
57 | 30.1 | > 10000 | O=C1CCC(N2Cc3cc(O[C@H]4CCN(Cc5ccc6cccnc6c5)C4)ccc3C2=O)C(=O)N1 (stereo partly drawn) [3-(1-oxo-5-{[(3S)-1-[(quinolin-7-yl)methyl]pyrrolidin-3-yl]oxy}-2,3-dihydro-1H-isoindol-2-yl)piperidine-2,6-dione] | 76.22
43.82 | 46.9 | > 10000 | O=C1CCC(N2Cc3cc(O[C@H]4CCN(Cc5cnc6ccccc6n5)C4)ccc3C2=O)C(=O)N1 (stereo partly drawn) [3-(1-oxo-5-{[(3S)-1-[(quinoxalin-2-yl)methyl]pyrrolidin-3-yl]oxy}-2,3-dihydro-1H-isoindol-2-yl)piperidine-2,6-dione] | 64.16
43 | 14.2 | 879 | O=C1CCC(N2Cc3cc(O[C@H]4CCN(Cc5ccc6nccnc6c5)C4)ccc3C2=O)C(=O)N1 (stereo partly drawn) [3-(1-oxo-5-{[(3S)-1-[(quinoxalin-6-yl)methyl]pyrrolidin-3-yl]oxy}-2,3-dihydro-1H-isoindol-2-yl)piperidine-2,6-dione] | 70.03
31.735 | – | 269 | O=C1CCC(N2Cc3cc(O[C@H]4CCN(Cc5cnn(-c6cccnc6)c5)C4)ccc3C2=O)C(=O)N1 (stereo partly drawn) [3-(1-oxo-5-{[(3S)-1-{[1-(pyridin-3-yl)-1H-pyrazol-4-yl]methyl}pyrrolidin-3-yl]oxy}-2,3-dihydro-1H-isoindol-2-yl)piperidine-2,6-dione] | 11.53
